Holding throughout (assay type): cell-based
Assay [1] concerns Micrococcus aloeverae. Put plainly: Measurement of viable bacterial count on fabric. The protocol: (§1) After culture on fabric prepared in the same manner as in the above (1), 9 mL of an LP diluent (manufactured by NIHON PHARMACEUTICAL CO., LTD.) was added, and the extraction of the bacteria was carried out under ultrasound for 10 minutes. The extraction liquid was poured and mixed to an SCD-LP agar medium (NIHON PHARMACEUTICAL CO., LTD.), and culture was thereafter carried out at 37° C.; for a day. The number of colonies obtained on each piece of the fabric was counted, and a common logarithm value thereof was measured as the viable bacterial count. […] In addition, the […], the more the viable bacterial count of the microorganism is maintained.
The metabolism of 14-methylhexadecanoic acid by bacteria of the genus Micrococcus was tested in the same manner as in example 1.
In this example, Micrococcus aloeverae (strain isolated from clothing) was used as a microorganism.
Further, in this example, a bacterial suspension of 10^7 (CFU/ml) prepared by using an SCD liquid medium (NIHON PHARMACEUTICAL CO., LTD.) diluted to 1/10 with ion exchange water was used as a bacterial suspension.
(§2) Note that, in this example, C12OH (1-dodecanol) was used as the metabolism controlling agent.

In assay [2] the test system is Staphylococcus aureus. As to the kind of experiment: Suppression of metabolism of 14-methylhexadecanoic acid on cotton fabric. The note with it: agent 250 μg/fabric g. The method, then: (§3) A methanol solution in which 14-methylhexadecanoic acid (SIGMA-ALDRICH) was dissolved was added dropwise to 3 cm×3 cm pieces of sterilized plain-weave cotton fabric to make it adhered to the fabric. The adhesion amount of 14-methylhexadecanoic acid was set to 10 μg per piece of the plain-weave cotton fabric (100 μg/fabric g).
(§4) Further, a methanol solution in which each metabolism controlling agent was dissolved was prepared and added dropwise to the fabric to which 14-methylhexadecanoic acid adhered, and it was thereafter dried for an hour. This fabric was placed in a sterilized screw tube bottle No. 3 (Maruemu Corporation) and 100 μl of the bacterial suspension was inoculated thereto, and culture was carried out under 37° C.; conditions for 21 hours.
(§5) 3 ml of methanol was added to the screw tube bottle after culture, and extraction was carried out under ultrasonic irradiation for 30 minutes (20° C.). The extraction liquid was mixed with a (trimethylsilyl)diazomethane hexane solution (FUJIFILM Wako Pure Chemical Corporation) at 9:1 (volume ratio) and left overnight under room temperature and dark place conditions. After that, 14-methylhexadecanoic acid remaining on the fabric was quantified by GC. The quantification conditions for GC are as follows. • GC: Agilent 7890A • GC column: Agilent DB-1 30 m×250 μm×0.25 μm • Temperature rise condition: 50° C. (held for 3 minutes)-(10° C./min)-300° C. (held for 5 minutes) • Sample injection volume: 1 μl • Split ratio: 1:12 • Detector: FID
(§6) The residual amount of 14-methylhexadecanoic acid after culture on the fabric to which the metabolism controlling agent was added was quantified, and the ratio of the residual amount to that of 14-methylhexadecanoic acid in the case of adding no metabolism controlling agent (control) was calculated as a metabolism suppression rate (%). The higher a numerical value thereof is, the more the metabolism is suppressed. Note that the metabolism suppression rate was determined by the following formula:
(§7) Metabolism suppression rate(%)=[1−(100−A)/(100−B)]×100 • A: residual amount of 14-methylhexadecanoic acid of example or comparative example (μg/fabric g) • B: residual amount of 14-methylhexadecanoic acid of control (μg/fabric g)
(§8) The metabolism of 14-methylhexadecanoic acid by bacteria of the genus Staphylococcus (Staphylococcus aureus) was tested in the same manner as in example 1.
(§9) In this example, Staphylococcus aureus (strain isolated from clothing) was used as a microorganism.
(§10) Further, in this example, a bacterial suspension of 10^7 (CFU/ml) prepared by using an NB liquid medium diluted to 1/10 with ion exchange water was used as a bacterial suspension.

The subject of assay [3] is Staphylococcus aureus. As to the kind of experiment: Measurement of viable bacterial count on fabric. The method, then: as §1, §8, §9, §10, §2
The test system of assay [4] is Escherichia coli (NBRC3972). Put plainly: Suppression of metabolism of 14-methylhexadecanoic acid on cotton fabric. The method, then: as §3, §4, §5, §6, §7
(§11) The metabolism of 14-methylhexadecanoic acid by bacteria of the genus Escherichia (Escherichia coli) was tested in the same manner as in example 1.
(§12) In this example, Escherichia coli (NBRC3972) was used as a microorganism.
(§13) Further, in this example, a bacterial suspension of 10^6 (CFU/ml) prepared by using an NB liquid medium diluted to 1/10 with ion exchange water was used as a bacterial suspension.
as §2

In assay [5] the test system is Escherichia coli (NBRC3972). Put plainly: Suppression of metabolite 4-methylhexanoic acid from 14-methylhexadecanoic acid. The protocol:
After culture on fabric prepared in the same manner as in the above (1), 3 ml of methanol was added, and extraction was carried out under ultrasonic irradiation for 30 minutes (20° C.). The extraction liquid was mixed with (a 1000 ppm methanol solution of) an ADAM reagent of Funakoshi Co., Ltd. at 1:1 (volume ratio) and left overnight under room temperature and dark place conditions. After that, 4-methyl-3-hexenoic acid as a metabolite from 14-methylhexadecanoic acid was quantified by HPLC. The quantification conditions are as follows.
The production amount of 4-methyl-3-hexenoic acid after culture on the fabric to which each metabolism controlling agent was added was quantified, and the ratio of the production amount to that of 4-methyl-3-hexenoic acid in the case of adding no metabolism controlling agent (control) was calculated as a metabolite suppression rate (%). The higher a numerical value thereof is, the more the metabolism is suppressed. Note that the metabolite suppression rate was determined by the following formula:
Metabolite suppression rate(%)=100×[(D−C)/D] • C: production amount of metabolite of example or comparative example (μg/fabric g) • D: production amount of metabolite of control (μg/fabric g)
as §11, §12, §13
Further, in this example, 4-methylhexanoic acid was quantified as a metabolite from 14-methylhexadecanoic acid, and the metabolite suppression rate was determined in the same manner as in example 1.
as §2

Assay [6] relates to Rhodotorula mucilaginosa. The description is as above. The protocol:
The extraction liquid was mixed with (a 1000 ppm methanol solution of) an ADAM reagent of Funakoshi Co., Ltd. at 1:1 (volume ratio) and left overnight under room temperature and dark place conditions. […] The quantification conditions are as follows. […] The higher a numerical value thereof is, the more the metabolism is suppressed. Note that the metabolite suppression rate was determined by the following formula: […] In this example, Rhodotorula mucilaginosa (strain isolated from clothing) was used as a microorganism. Further, in this example, the bacteria were precultured under conditions of a PDA agar medium (Difco), 30° C.; and 48 hours. Further, in this example, a bacterial suspension of 10^7 (CFU/ml) prepared by using a PDB liquid medium (Difco) diluted to 1/10 with ion exchange water was used as a bacterial suspension.

Where “and” joins values, the source holds several entries; their conditions need not be identical. Equal entries are not always repeated.

With `CCCCCCCCCCCCO` [Example C12OH, 1-dodecanol], the “Bacterial count (Log (cfu/fabric cm^2))” value is recorded as 6.5 Log (cfu/fabric cm^2) in assay [1] (agent 100 μg/fabric g); 5.6 Log (cfu/fabric cm^2) in assay [1] (agent 500 μg/fabric g); 5.6 Log (cfu/fabric cm^2) in assay [1] (agent 1000 μg/fabric g); 6.4 Log (cfu/fabric cm^2) in assay [3] (agent 100 μg/fabric g); 6.2 Log (cfu/fabric cm^2) in assay [3] (agent 500 μg/fabric g). Besides, the “Metabolism suppression rate (%)” value in assay [2] is 75%; in assay [4] (agent 500 μg/fabric g) it was 39% and 21%; in assay [4] (agent 1000 μg/fabric g), 90% and 61%; in assay [4] (agent 2000 μg/fabric g) it was 66%; in assay [4] (agent 3000 μg/fabric g) it was 73%. For the same molecule, the “Metabolite suppression rate (%)” value in assay [5] (agent 500 μg/fabric g) is 74% and 41%; in assay [5] (agent 1000 μg/fabric g), 93% and 65%; in assay [5] (agent 2000 μg/fabric g), 77%; in assay [5] (agent 3000 μg/fabric g) it was 80%; in assay [6] (agent 250 μg/fabric g), 62% and 72.50%; in assay [6] (agent 500 μg/fabric g), 65.80%. The “Metabolite suppression rate (%)” value in assay [6] (agent 1000 μg/fabric g) is on record as 82.20%.

These data come from patent publication US20220408724A1, “METHOD FOR CONTROLLING METABOLISM OF BRANCHED FATTY ACID” (KAO CORPORATION, priority 2019, published 2022).
